For this data set the following is noted: Liquid, Ebulliometric method (Recirculating still).

For orientation: vapor or sublimation pressure means the pressure of vapour in equilibrium with the condensed phase.

SMILES strings stand for the structures. ± gives the expanded uncertainty stated by the source.

On to `C` [methane], for which the “vapor or sublimation pressure” value turned out to be 1567 ± 50 kPa (159.61 K); 1695 ± 54 kPa (161.58 K); 2276 ± 73 kPa (169.38 K); 2672 ± 86 kPa (173.9 K); 3170 ± 100 kPa (178.93 K).

For `FC(F)(F)F` [tetrafluoromethane], the “vapor or sublimation pressure” value is, setting by setting: (159.61 K) 243 ± 8 kPa; (161.58 K) 269 ± 9 kPa; (169.38 K) 431 ± 14 kPa; (173.9 K) 517 ± 17 kPa; (178.93 K) 651 ± 21 kPa.

For the origin of these results see the NIST ThermoML archive (doi:10.1021/je0604030).
